Structures can show the parent of a compound that is named as a salt.
System: mouse
Assay: toxicity on intraperitoneal dosage in the mouse
Assay type: in vivo
Protocol: In using the compounds of this invention to inhibit prolactin secretion or to treat Parkinson's syndrome or for other pharmacologic action, a pharmaceutically active compound according to Formula I above, or a salt thereof with a pharmaceutically-acceptable acid, is administered to a subject suffering from Parkinsonism or in need of having their prolactin level reduced in an amount effective to alleviate some of the symptoms of Parkinsonism or to reduce an elevated prolactin level. Oral administration is preferred. If parenteral administration is used, the injection is preferably by the subcutaneous route using an appropriate pharmaceutical formulation. […] In particular, with intravenous or intramuscular administration, a water soluble pharmaceutically-acceptable salt is employed. For oral administration, a pharmaceutically active compound according to Formula I either as the free base or in the form of a salt thereof can also be mixed with standard pharmaceutical excipients and loaded into empty telescoping gelatin capsules or pressed into tablets. The oral dosage range is from about 0.01 to 10 mg/kg of mammalian weight and the parenteral dose range from about 0.0025 to 2.5 mg/kg of mammalian weight.

Structure (SMILES): CCCN(CCC)C1CCc2c[nH]cc2C1 (racemic) [dl-5-di-n-propylamino-4,5,6,7-tetrahydro-2H-benzo[c]pyrrole maleate]
- deaths (10-30 mg/kg): no deaths
- deaths (fatal dosages) (100-300 mg/kg): fatal
